Assay results reported in US7063946B2, “Methods, reagents, kits and apparatus for protein function analysis” (Meso Scale Technologies, LLC., priority 2001, dated 2006).
pIC50: −log10 of the molar value.

Tests used:
pEY = assay: In vitro kinase library screen: activity towards pEY; assay type: biochemical; settings: 5 ul of expressed protein
Experimental: Proteins were produced in an in vitro transcription and translation reaction. […] The unbound components of the reaction containing endogenous kinases were removed by three washes with TT-buffer (25 mM Tris-HCl buffer pH 7.4 and 0.004% Triton), two five minutes washings with high-salt wash buffer (25 mM Tris-HCl buffer pH 7.4, 0.004% Triton, 1M NaCl and 5 mM DTT) and 3 more washes with TT-buffer. To these immobilized and purified proteins a tyrosine kinase substrate, 5 nM pEY (poly Glu-Tyr, Sigma, MO), was added in a 50 μl reaction solution containing 5 mM MgCl2, 5 mM MnCl2, 100 μM ATP, 25 mM Tris-HCl buffer pH 7.4, 0.05 mM Na3VO4, 0.004% TritonX-100, 2 mM DTT and EDTA-free protease inhibitor (Roche Molecular Biochemicals). This mixture was incubated with shaking at room temperature overnight to allow phosphorylation of the pEY substrate by the immobilized kinases. Following this incubation, 45 μl of this mixture was transferred to a streptavidin or avidin-coated NPT IPR plate coated with biotinylated anti-phosphotyrosine antibody (PY20, Zymed labs, CA) followed by incubation for 30 minutes at room temperature to allow the binding of the phosphorylated pEY substrate to the PY20 coated NPT plate. Following this binding step, 50 ng Sulfo-TAG labeled anti-phosphotyrosine in buffer containing 25 mM Tris-HCl buffer pH 7.4, 5 mM MgCl2, 0.05 mM Na3VO4, 0.004% TritonX-100, 2 mM DTT and 0.05% IgG was added followed by incubation at room temperature for 30 mm. The unbound reagents were removed by one time washing with water, and the TAG label was detected in presence of 150 μl IPR assay buffer (0.4 mM Gly-Gly buffer, pH 7.8, 1 mM EDTA, 0.1 M TPA). The ECL signals were measured using an imaging plate reader.
(§1) Proteins were produced in an in vitro transcription and translation reaction as described in the Materials and Methods. […] The reaction was stopped by mixing with BB2 buffer. Biotinylated proteins from 50 μl of the mixture (representing 0.5 μl to 5 μl of TnT reaction) were immobilized onto streptavidin or avidin coated NPT-IPR plates by shaking at room temperature for 45 min. The activity of the immobilized protein towards pEY or autophosphorylation was further assayed by the methods described in examples 7 and 8.

[1] = test system: autophosphorylation (phosphotyrosine); assay: In vitro kinase library screen: autophosphorylation; assay type: biochemical
Experimental: Proteins were produced from DNA plasmids of Mock Luciferase, Promega, tyrosine kinase clone Spleen Tyrosine kinase (SYK, IMAGE ID# 3870426) and Eph receptor-A7 (EphA7, IMAGE ID# 3991628) (Incyte Genomics, CA) and immobilized on streptavidin or avidin coated NPT-IPR plates as described in the Example 7. To promote autophosphorylation in these immobilized and purified proteins, Mn++ ions were added in a 50 μl reaction containing 5 mM MgCl2, 5 mM MnCl2, 100 μM ATP, 25 mM Tris-HCl buffer pH 7.4, 0.05 mM Na3VO4, 0.004% TritonX-100, 2 mM DTT and EDTA-free protease inhibitor (Roche Molecular Biochemicals). This mixture was incubated with shaking at room temperature overnight to allow autophosphorylation. Following this incubation, wells were washed 2 times with TT-buffer and 2 times with water. Following this step, 50 ng Sulfo-TAG labeled anti-phosphotyrosine in buffer containing 25 mM Tris-HCl buffer pH 7.4, 5 mM MgCl2, 0.05 mM Na3VO4, 0.004% TritonX-100, 2 mM DTT and 0.05% IgG in a final volume of 50 μl was added followed by incubation at room temperature for 45 min. The unbound reagents were removed by one time washing with water, and the TAG label was detected in presence of 150 μl IPR assay buffer (0.4 mM Gly—Gly buffer, pH 7.8, 1 mM EDTA, 0.1 M TPA). The ECL signals were measured using an imaging plate reader.
as §1

[2] = test system: pooled phosphopeptide:BSA conjugates (Pools A-D); assay: Coded multiplex phosphopeptide binding assay with pooled peptide:BSA conjugates on 4 spots
Excerpt: To prepare the Multi-Spot IPR plates, in this example we made use of pools of the peptide:BSA conjugates to coat each of 4 spots per well in a 96 well plate. To achieve this we made the following pools; • Pool A; EGFR-pTyr1148, IkBa-24ppC, Myc-p58Tp62S. • Pool B; EGFR-pTyr992, EGFR-pTyr1148, Smad3C. • Pool C; EGFR-pTyr1068, IkBa-24ppC, Smad3C. • Pool D; EGFR-pTyr992, EGFR-pTyr1068, Myc-p58Tp62S.
This combination of the various peptides results in any single peptide being present in two pools. Each of these four pools is then spotted on to a unique spot in a 4 spot array. In this way any single binding protein with specificity for only one of the peptides would bind to two spots; the identity of the two spots would allow the identification of the peptide involved in the binding reaction.
Typically approximately 120 fmole of peptide:BSA conjugate in 0.25 μl was deposited on each spot of a 4-spot multi-array IPR plates using a BioDot Dispenser (Bio-Dot Inc., vIrvine Calif.). At this stage, the plates were dried then used or stored under desiccated condition. A few hours prior to usage, the plates were rehydrated and blocked with 3% BSA, in PBS.
To test the system the following EST clones IMAGE # 3491843, 4237375, 4398016, 4419252, 3872466, 3907115 were obtained. These clones express the following genes βTRCP1, βTRCP2, Grb2, PLCγ, CBP and Shc1, respectively. […] These DNAs were used to produce proteins as described in the Materials and Methods. Proteins were transferred to a well of the 4 spot peptide-coated and BSA blocked ECL plates. The binding assay (using Sulfo-TAG labeled streptavidin as a detection agent) was carried our according to the procedures described in Example 11.

[3] = test system: tyrosine kinases reported to be the target of each inhibitor; settings: read-out: reported IC50 concentration (1× concentration); for the kinase reported to be the target of the inhibitor; cited from earlier work

Molecule | HTS signal (pEY) | ECL signal [1] | other results
3156953: IMAGE clone protein: Wee1, wee 1 homolog (S. pombe) [compound 3156953] | 981 | 27,452 | –
3601246: IMAGE clone protein: FRK, B-cell src-homology tyrosine kinase [compound 3601246] | 15,235 | 28,243 | –
3866791: IMAGE clone protein: JAK1, Janus kinase 1 [compound 3866791] | 729 | – | –
3896359: IMAGE clone protein: FGFR1, fibroblast growth factor receptor 1 (fms-related TK2) [compound 3896359] | 2,339 | 7,696 | –
3921724: IMAGE clone protein: FGR, FYN oncogene related to SRC [compound 3921724] | 93,081 | 241,697 | –
3982920: IMAGE clone protein: Clk4, CDC like kinase 4 [compound 3982920] | 2,244 | 192,787 | –
3989782: IMAGE clone protein: Yes, Yamaguchi sarcoma viral (v-yes) oncogene homolog [compound 3989782] | 2,208 | 4,542 | –
3995512: IMAGE clone protein: CLK2, CDC-like kinase 2 [compound 3995512] | 634 | 20,748 | –
4036253: IMAGE clone protein: CLK3, CDC-like kinase 3 [compound 4036253] | 704 | 42,712 | –
4037899: IMAGE clone protein: FGFR1, fibroblast growth factor receptor 1 [compound 4037899] | 450,413 | 240,550 | –
4181574: IMAGE clone protein: NTRK3, neurotrophic tyrosine kinase [compound 4181574] | 36,515 | 55,017 | –
4191610: IMAGE clone protein: LCK, lymphocyte protein tyrosine kinase [compound 4191610] | 3,110 | 24,183 | –
4343428: IMAGE clone protein: PTK2B, protein tyrosine kinase 2 beta [compound 4343428] | 57,486 | 274,742 | –
4363897: IMAGE clone protein: FGR, FYN oncogene related to SRC [compound 4363897] | 402,243 | 44,220 | –
4387232: IMAGE clone protein: CLK1, CDC-like kinase 1 [compound 4387232] | 5,109 | 423,938 | –
4398016: IMAGE clone protein: Grb2 [compound 4398016] | – | – | Code (pattern of positive spots) [2]: C, D; Peptide determined from code [2]: EGFR-pTyr1068; ECL signal, spot A ([2]; Pool A, EGFR-pTyr1148, IkBa-24ppC, Myc-p58Tp62S): 36; ECL signal, spot B ([2]; Pool B, EGFR-pTyr992, EGFR-pTyr1148, Smad3C): 38; ECL signal, spot C ([2]; Pool C, EGFR-pTyr1068, IkBa-24ppC, Smad3C): 509; ECL signal, spot D ([2]; Pool D, EGFR-pTyr992, EGFR-pTyr1068, Myc-p58Tp62S): 386
4419031: IMAGE clone protein: BLK, B lymphoid tyrosine kinase [compound 4419031] | 37,907 | 146,775 | –
4419700: IMAGE clone protein: LCK, lymphocyte-specific protein tyrosine kinase [compound 4419700] | 898 | 7,230 | –
4419973: IMAGE clone protein: FGR, Gardner-Rasheed feline sarcoma viral (v-fgr) oncogene homolog [compound 4419973] | 104,946 | 117,395 | –
4471986: IMAGE clone protein: ALK, anaplastic lymphoma kinase (Ki-1) [compound 4471986] | 905 | 4,069 | –
4515877: IMAGE clone protein: Frk, fyn-related kinase [compound 4515877] | 271,855 | 148,139 | –
COc1cc2ncnc(Nc3cccc(Cl)c3)c2cc1OC [AG-1478] | – | – | pIC50 [3]: 8.52
CCOc1cc2ncnc(Nc3cccc(Br)c3)c2cc1OCC [Compound-56] | – | – | pIC50 [3]: 11.22
CC(C)c1cc(/C=C(\C#N)C(=O)NCCCc2ccccc2)cc(C(C)C)c1O [SU-1498] | – | – | pIC50 [3]: 6.15
